Assay results taken from patent US20150045551A1, “FUSED AZOLE DERIVATIVE” (TAISHO PHARMACEUTICAL CO., LTD, priority 2012, published 2015).
Structures can show the parent of a compound that is named as a salt.

molecular target: T1, Human V1b receptor (Homo sapiens, UniProt P47901); assay: Binding test for V1b receptor ([3H]AVP displacement, crude membrane preparation); set-up: expressed in transfected cells; host or cells: 293FT cells (transient expression); conditions: [3H]AVP 0.4 to 1 nmol/L; membranes of 293FT cells transiently expressing human V1b receptor; room temperature, 60 minutes
T1 sequence (P47901 1-424): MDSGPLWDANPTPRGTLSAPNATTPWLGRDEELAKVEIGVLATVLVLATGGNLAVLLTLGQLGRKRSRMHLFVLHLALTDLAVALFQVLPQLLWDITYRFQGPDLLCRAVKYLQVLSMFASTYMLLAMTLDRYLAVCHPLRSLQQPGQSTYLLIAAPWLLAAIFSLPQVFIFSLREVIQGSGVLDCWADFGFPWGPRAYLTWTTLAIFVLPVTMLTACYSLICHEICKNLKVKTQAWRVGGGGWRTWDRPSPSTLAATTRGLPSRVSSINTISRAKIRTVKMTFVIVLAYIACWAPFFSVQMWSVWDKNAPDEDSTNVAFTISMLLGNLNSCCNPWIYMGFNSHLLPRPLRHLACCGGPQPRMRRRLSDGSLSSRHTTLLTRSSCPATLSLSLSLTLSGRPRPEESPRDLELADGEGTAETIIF
Description: Human V1b receptor was transiently expressed in 293FT cells, which were then recovered and homogenated in a 15 mmol/L tris-hydrochloric acid buffer (pH 7.4 and containing 2 mmol/L magnesium chloride, 0.3 mmol/L ethylenediaminetetracetic acid, and 1 mmol/L glycol ether diaminetetraacetic acid). The resulting homogenate was centrifuged at 50,000×g at 4 ° C. for 20 minutes. The precipitate was resuspended in a 75 mmol/L tris-hydrochloric acid buffer (pH 7.4 and containing 12.5 mmol/L magnesium chloride, 0.3 mmol/L ethylenediaminetetracetic acid, 1 mmol/L glycol ether diaminetetraacetic acid, and 250 mmol/L sucrose) to give a crude membrane preparation, which was stored at −80° C. until the binding test was initiated. In the binding test, the crude membrane preparation was diluted with a 50 mmol/L tris-hydrochloric acid buffer (pH 7.4 and containing 10 mmol/L magnesium chloride and 0.1% bovine serum albumin) and mixed with each test compound and [^3H]AVP (final concentration: 0.4 to 1 nmol/L), followed by incubation at room temperature for 60 minutes. The test compound was serially diluted with DMSO so that it would have final concentrations of 0.01 nmol/L to […] at the time of mixing. After the incubation, the mixture was suction filtered through a GF/C filter that was preliminarily impregnated with 0.3% polyethyleneimine. The GF/C filter was dried and after adding a scintillator, the residual radioactivity on the filter was measured using TopCount (PerkinElmer Inc.). The radioactivity in the presence of unlabeled AVP at 10 μmol/L was defined as 0%, and the radioactivity in the absence of unlabeled AVP was defined as 100%. A dose-response curve was plotted from radioactivities in the presence of a test compound at various concentrations, and the 50% inhibitory concentration (IC50 value) of the test compound was calculated.

SMILES | IC50 [nM]
CC(C)NC(=O)Cn1c(-c2cccc(Cl)c2)nc2cc(OCCCN3CCOCC3)ccc21 [Example A-2, 2-{2-(3-chlorophenyl)-5-[3-(morpholin-4-yl)propoxy]-1H-benzimidazol-1-yl}-N-isopropyl acetamide] | 14.1
CC(C)NC(=O)Cn1c(-c2cccc(Cl)c2)nc2cc(OCCCN3CC4(COC4)C3)ccc21 [Example A-3, 2-{2-(3-chlorophenyl)-5-[3-(2-oxa-6-azaspiro[3.3]hept-6-yl)propoxy]-1H-benzimidazol-1-yl}-N-isopropyl acetamide] | 8.3
CC(C)NC(=O)Cn1c(-c2cccc(Cl)c2)nc2cc(OCCCN3[C@@H]4CC[C@H]3COC4)ccc21 [Example A-4, 2-[2-(3-chlorophenyl)-5-{3-[(1R,5S)-3-oxa-8-azabicyclo[3.2.1]oct-8-yl]propoxy}-1H-benzimidazol-1-yl]-N-isopropyl acetamide] | 5
COc1cc(-c2nc3cc(OCCCN4CC5(COC5)C4)ccc3n2CC(=O)NC(C)C)ccc1F [Example A-7, 2-{2-(4-fluoro-3-methoxyphenyl)-5-[3-(2-oxa-6-azaspiro[3.3]hept-6-yl)propoxy]-1H-benzimidazol-1-yl}-N-isopropyl acetamide] | 4.8
COc1cc(-c2nc3cc(OCCCN4[C@@H]5CC[C@H]4COC5)ccc3n2CC(=O)NC(C)C)ccc1F [Example A-8, 2-[2-(4-fluoro-3-methoxyphenyl)-5-{3-[(1R,5S)-3-oxa-8-azabicyclo[3.2.1]oct-8-yl]propoxy}-1H-benzimidazol-1-yl]-N-isopropyl acetamide] | 2.5
COc1cc(-c2nc3ccc(-c4cc(Cl)cc(CN(C)C)c4)cc3n2CC(=O)NC(C)C)ccc1F [Example A-10, 2-[6-{3-chloro-5-[(dimethylamino)methyl]phenyl}-2-(4-fluoro-3-methoxyphenyl)-1H-benzimidazol-1-yl]-N-isopropyl acetamide] | 141
CC(C)NC(=O)Cn1c(-c2ccc(F)c(Cl)c2)nc2cc(OCCCN3CCCCC3)ccc21 [Example A-12, 2-{2-(3-chloro-4-fluorophenyl)-5-[3-(piperidin-1-yl)propoxy]-1H-benzimidazol-1-yl}-N-isopropyl acetamide hydrochloride] | 7.6
CC(C)NC(=O)Cn1c(-c2ccc(F)c(Cl)c2)nc2cc(OCCCN3CC4(COC4)C3)ccc21 [Example A-15, 2-{2-(3-chloro-4-fluorophenyl)-5-[3-(2-oxa-6-azaspiro[3.3]hept-6-yl)propoxy]-1H-benzimidazol-1-yl}-N-isopropyl acetamide] | 3.8
CC(C)NC(=O)Cn1c(-c2ccc(F)c(Cl)c2)nc2cc(OCCCN3[C@@H]4CC[C@H]3COC4)ccc21 [Example A-16, 2-[2-(3-chloro-4-fluorophenyl)-5-{3-[(1R,5S)-3-oxa-8-azabicyclo[3.2.1]oct-8-yl]propoxy}-1H-benzimidazol-1-yl]-N-isopropyl acetamide] | 1.7
CC(C)NC(=O)Cn1c(-c2ccc(F)c(Cl)c2)nc2cc(OCCCCN3CCCCC3)ccc21 [Example A-17, 2-{2-(3-chloro-4-fluorophenyl)-5-[4-(piperidin-1-yl)butoxy]-1H-benzimidazol-1-yl}-N-isopropyl acetamide] | 176
COc1cccc(-c2nc3cc(OCCCN4CCOCC4)ccc3n2CC(=O)NC(C)C)n1 [Example A-18, N-isopropyl-2-{2-(6-methoxypyridin-2-yl)-5-[3-(morpholin-4-yl)propoxy]-1H-benzimidazol-1-yl}acetamide] | 83.6
COc1cc(-c2nc3cc(N4CCCN(C)CC4)ccc3n2CC(=O)NC(C)(C)C)ccc1F [Example A-19, N-tert-butyl-2-[2-(4-fluoro-3-methoxyphenyl)-5-(4-methyl-1,4-diazepan-1-yl)-1H-benzimidazol-1-yl]acetamide] | 3.4
COc1cc(-c2nc3cc(N4CCCN(C(C)C)CC4)ccc3n2CC(=O)NC(C)(C)C)ccc1F [Example A-20, N-tert-butyl-2-[2-(4-fluoro-3-methoxyphenyl)-5-(4-isopropyl-1,4-diazepan-1-yl)-1H-benzimidazol-1-yl]acetamide] | 8.6
COc1cc(-c2nc3cc(N4CCC(N5CCCC5)CC4)ccc3n2CC(=O)NC(C)(C)C)ccc1F [Example A-21, N-tert-butyl-2-{2-(4-fluoro-3-methoxyphenyl)-5-[4-(pyrrolidin-1-yl)piperidin-1-yl]-1H-benzimidazol-1-yl}acetamide] | 1.1
CC(C)NC(=O)Cn1c(-c2ccc(F)c(Cl)c2)nc2cc(N3CCCN(C)CC3)ccc21 [Example A-22, 2-[2-(3-chloro-4-fluorophenyl)-5-(4-methyl-1,4-diazepan-1-yl)-1H-benzimidazol-1-yl]-N-isopropyl acetamide] | 15.4
CN1CCCN(c2ccc3c(c2)nc(-c2ccc(F)c(Cl)c2)n3CC(=O)NC(C)(C)C)CC1 [Example A-23, N-tert-butyl-2-[2-(3-chloro-4-fluorophenyl)-5-(4-methyl-1,4-diazepan-1-yl)-1H-benzimidazol-1-yl]acetamide] | 3.1

Continued, values first:

IC50 [nM] | SMILES
6.4 | CC(C)NC(=O)Cn1c(-c2cccc(Cl)c2)cc2cc(OCCCN3CCOCC3)ccc21 [Example B-2, 2-{2-(3-chlorophenyl)-5-[3-(morpholin-4-yl)propoxy]-1H-indol-1-yl}-N-isopropyl acetamide]
10.4 | CC(C)NC(=O)Cn1c(-c2cccc(Cl)c2)cc2cc(OC3CCN(C4CC4)CC3)ccc21 [Example B-3, 2-{2-(3-chlorophenyl)-5-[(1-cyclopropylpiperidin-4-yl)oxy]-1H-indol-1-yl}-N-isopropyl acetamide]
18.4 | CC(C)NC(=O)Cn1c(-c2cccc(Cl)c2)cc2cc(OCCCN3CCC(O)CC3)ccc21 [Example B-6, 2-{2-(3-chlorophenyl)-5-[3-(4-hydroxypiperidin-1-yl)propoxy]-1H-indol-1-yl}-N-isopropyl acetamide]
73.4 | CC(C)NC(=O)Cn1c(-c2cccc(Cl)c2)cc2cc(OCCCN3CCCC(O)C3)ccc21 (stereo not drawn) [Example B-7, 2-{2-(3-chlorophenyl)-5-[3-(3-hydroxypiperidin-1-yl)propoxy]-1H-indol-1-yl}-N-isopropyl acetamide]
52.3 | CC(C)NC(=O)Cn1c(-c2cccc(Cl)c2)cc2cc(OCCCN3CCC(O)C3)ccc21 (stereo not drawn) [Example B-8, 2-{2-(3-chlorophenyl)-5-[3-(3-hydroxypyrrolidin-1-yl)propoxy]-1H-indol-1-yl}-N-isopropyl acetamide]
20.2 | CC(C)NC(=O)Cn1c(-c2cccc(Cl)c2)cc2cc(OCCCN3CCC4(CC3)COC4)ccc21 [Example B-10, 2-{2-(3-chlorophenyl)-5-[3-(2-oxa-7-azaspiro[3.5]non-7-yl)propoxy]-1H-indol-1-yl}-N-isopropyl acetamide]
52.1 | COc1cc(-c2cc3cc(OCCCN4CCCCC4)ccc3n2CC(=O)NC(C)C)ccc1F [Example B-11, 2-{2-(4-fluoro-3-methoxyphenyl)-5-[3-(piperidin-1-yl)propoxy]-1H-indol-1-yl}-N-isopropyl acetamide]
45.3 | COc1cc(-c2cc3cc(OCCCN4CCC(O)CC4)ccc3n2CC(=O)NC(C)C)ccc1F [Example B-12, 2-{2-(4-fluoro-3-methoxyphenyl)-5-[3-(4-hydroxypiperidin-1-yl)propoxy]-1H-indol-1-yl}-N-isopropyl acetamide]
87.1 | COc1cc(-c2cc3cc(OCCCN4CCCC(O)C4)ccc3n2CC(=O)NC(C)C)ccc1F (stereo not drawn) [Example B-13, 2-{2-(4-fluoro-3-methoxyphenyl)-5-[3-(3-hydroxypiperidin-1-yl)propoxy]-1H-indol-1-yl}-N-isopropyl acetamide]
87.2 | COc1cc(-c2cc3cc(OCCCN4CCC(O)C4)ccc3n2CC(=O)NC(C)C)ccc1F (stereo not drawn) [Example B-14, 2-{2-(4-fluoro-3-methoxyphenyl)-5-[3-(3-hydroxypyrrolidin-1-yl)propoxy]-1H-indol-1-yl}-N-isopropyl acetamide]
8.3 | COc1cc(-c2cc3cc(OCCCN4CC5(COC5)C4)ccc3n2CC(=O)NC(C)C)ccc1F [Example B-15, 2-{2-(4-fluoro-3-methoxyphenyl)-5-[3-(2-oxa-6-azaspiro[3.3]hept-6-yl)propoxy]-1H-indol-1-yl}-N-isopropyl acetamide]
